# Laboratory results as given in patent US20100152197A1, “(4-TERT-BUTYLPIPERAZIN-2-YL)(PIPERAZIN-1-YL)METHANONE-N-CARBOXAMIDE DERIVATIVES” (ASTRAZENECA AB, priority 2008, published 2010).
# Target: T1, CCR2 (Homo sapiens, UniProt P41597)
# T1 construct: cell membranes containing 6×10^6cells/ml equivalent; endogenous in cells; host or cells: THP1 cells (membrane fragments)
# T1 sequence (P41597 1-360 isoform P41597-2): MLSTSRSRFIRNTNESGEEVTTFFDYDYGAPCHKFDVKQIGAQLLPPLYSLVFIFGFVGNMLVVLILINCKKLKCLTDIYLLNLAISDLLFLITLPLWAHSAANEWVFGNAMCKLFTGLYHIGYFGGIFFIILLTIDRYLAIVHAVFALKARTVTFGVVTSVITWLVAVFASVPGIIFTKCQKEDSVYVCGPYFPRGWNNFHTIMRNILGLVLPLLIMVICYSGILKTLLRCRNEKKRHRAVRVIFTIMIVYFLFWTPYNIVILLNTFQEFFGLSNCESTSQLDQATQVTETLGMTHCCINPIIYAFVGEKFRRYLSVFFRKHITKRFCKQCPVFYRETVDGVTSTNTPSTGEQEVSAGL
# Test: hMCP-1 THP1 receptor-binding assay (125I-labeled MCP-1, SPA, THP1 cell membranes)
# Details: 250 pM 125I-labeled MCP-1, THP1 cell membranes, room temperature 16 hours; read-out: CCR2 Binding pIC50 (converted)
# Description: hMCP-1 THP1 Receptor-Binding Assay
# i) Preparation of Membrane Fragments
# THP1 cells were grown in RPMI (Sigma) supplemented with 10% foetal calf serum, 2 mM glutamine (Gibco), 100 units/ml Penicillin and 100 μg/ml Streptomycin (Invitrogen). Membrane fragments were prepared using cell lysis/differential centrifugation methods as described previously (Siciliano et al., 1990, J. Biol. Chem., 265, 19658). Protein concentration was estimated by BCA protein assay (Pierce, Rockford, Ill.) according to the manufacturer's instructions.
# ^125I-labeled MCP-1 was prepared using Bolton and Hunter conjugation (Bolton et al., 1973, Biochem. J., 133, 529; Amersham International plc).
# Test compounds were dissolved in DMSO and further diluted in assay buffer (50 mM HEPES, 1 mM CaCl2, 5 mM MgCl2, 1 mM EDTA, 0.03% BSA, pH 7.2) to give a range of concentrations starting with a top final concentration of up to 10 μM. […] Incubations contained 250 pM ^125I-labeled MCP-1 (GE Healthcare), 0.5 mg Scintillation proximity assay beads (GE Healthcare RPNQ001) and cell membranes containing 6×10^6cells/ml equivalent. Non-specific binding was determined by the inclusion of 10 μM of a known CCR2b antagonist in the place of test compound. Total binding was determined in the presence of 1% DMSO without compound. Incubations were performed in sealed optiplates and kept at room temperature for 16 hours after which the plates were counted on a Packard TopCount (Packard TopCount™). Dose-response curves were generated using “in-house” data analysis package incorporating Origin software to determine IC50 values. Percent inhibitions were calculated for single concentrations of compound by using the following formula 100−((compound binding minus non-specific binding)/(total binding minus non-specific binding)×100).
row,SMILES,IC50 [nM]
1,"CC(C)(C)N1CCN[C@@H](C(=O)N2CCN(C(=O)Nc3nc(C(F)(F)F)c(Cl)s3)CC2)C1 [Example 17, 4-[(2R)-4-tert-butylpiperazine-2-carbonyl]-N-[5-chloro-4-(trifluoromethyl)-1,3-thiazol-2-yl]piperazine-1-carboxamide]",< 0.447
2,"CC(C)(C)N1CCN[C@@H](C(=O)N2CCN(C(=O)Nc3ccc(Br)cc3)CC2)C1 [Example 4, N-(4-bromophenyl)-4-[(2R)-4-tert-butylpiperazine-2-carbonyl]piperazine-1-carboxamide]",6.76
3,"Cc1nc(NC(=O)N2CCN(C(=O)[C@H]3CN(C(C)(C)C)CCN3)CC2)sc1Cl [Example 16, 4-[(2R)-4-tert-butylpiperazine-2-carbonyl]-N-(5-chloro-4-methyl-1,3-thiazol-2-yl)piperazine-1-carboxamide]",1.26
4,"CC(C)(C)N1CCN[C@@H](C(=O)N2CCN(C(=O)Nc3cccc(OC(F)(F)C(F)F)c3)CC2)C1 [Example 10, 4-[(2R)-4-tert-butylpiperazine-2-carbonyl]-N-[3-(1,1,2,2-tetrafluoroethoxy)phenyl]piperazine-1-carboxamide]",6.76
5,"CC(C)(C)N1CCN[C@@H](C(=O)N2CCN(C(=O)Nc3cccc(Cl)c3)CC2)C1 [Example 2, 4-[(2R)-4-tert-butylpiperazine-2-carbonyl]-N-(3-chlorophenyl)piperazine-1-carboxamide]",2.57
6,"CC(C)(C)N1CCN[C@@H](C(=O)N2CCN(C(=O)Nc3cccc(OCc4ccccc4)c3)CC2)C1 [Example 12, 4-[(2R)-4-tert-butylpiperazine-2-carbonyl]-N-(3-phenylmethoxyphenyl)piperazine-1-carboxamide]",1.82
7,"CCc1nc(NC(=O)N2CCN(C(=O)[C@H]3CN(C(C)(C)C)CCN3)CC2)sc1Cl [Example 15, 4-[(2R)-4-tert-butylpiperazine-2-carbonyl]-N-(5-chloro-4-ethyl-1,3-thiazol-2-yl)piperazine-1-carboxamide]",< 0.447
8,"Cc1nc(NC(=O)N2CCN(C(=O)[C@H]3CN(C(C)(C)C)CCN3)CC2)sc1Br [Example 14, N-(5-bromo-4-methyl-1,3-thiazol-2-yl)-4-[(2R)-4-tert-butylpiperazine-2-carbonyl]piperazine-1-carboxamide]",2.75

# Continued, values first:
row,IC50 [nM],SMILES
1,3.09,"CC(C)(C)N1CCN[C@@H](C(=O)N2CCN(C(=O)Nc3cccc(C(F)(F)F)c3)CC2)C1 [Example 1, 4-[(2R)-4-tert-butylpiperazine-2-carbonyl]-N[3(trifluoromethyl)phenyl]piperazine-1-carboxamide]"
2,2.57,"CC(C)(C)N1CCN[C@@H](C(=O)N2CCN(C(=O)Nc3ccc(Cl)c(F)c3)CC2)C1 [Example 9, 4-[(2R)-4-tert-butylpiperazine-2-carbonyl]-N-(4-chloro-3-fluorophenyl)piperazine-1-carboxamide]"
3,< 0.871,"CC(C)(C)N1CCN[C@@H](C(=O)N2CCN(C(=O)Nc3ccc(OC(F)(F)F)c(Cl)c3)CC2)C1 [Example 13, 4-[(2R)-4-tert-butylpiperazine-2-carbonyl]-N-[3-chloro-4-(trifluoromethoxy)phenyl]piperazine-1-carboxamide]"
4,8.51,"CC(C)(C)N1CCN[C@@H](C(=O)N2CCN(C(=O)Nc3ccc(F)c(Cl)c3)CC2)C1 [Example 7, 4-[(2R)-4-tert-butylpiperazine-2-carbonyl]-N-(3-chloro-4-fluorophenyl)piperazine-1-carboxamide]"
5,1.82,"Cc1ccc(NC(=O)N2CCN(C(=O)[C@H]3CN(C(C)(C)C)CCN3)CC2)cc1C(F)(F)F [Example 6, 4-[(2R)-4-tert-butylpiperazine-2-carbonyl]-N-[4-methyl-3-(trifluoromethyl)phenyl]piperazine-1-carboxamide]"
6,2,"CC(C)(C)N1CCN[C@@H](C(=O)N2CCN(C(=O)Nc3ccc(F)c(C(F)(F)F)c3)CC2)C1 [Example 5, 4-[(2R)-4-tert-butylpiperazine-2-carbonyl]-N-[4-fluoro-3(trifluoromethyl)phenyl]piperazine-1-carboxamide]"
7,7.24,"CC(C)(C)N1CCN[C@@H](C(=O)N2CCN(C(=O)Nc3ccc(C#N)c(C(F)(F)F)c3)CC2)C1 [Example 8, 4-[(2R)-4-tert-butylpiperazine-2-carbonyl]-N-[4-cyano-3-(trifluoromethyl)phenyl]piperazine-1-carboxamide]"
8,2.82,"CC(C)(C)N1CCN[C@@H](C(=O)N2CCN(C(=O)Nc3cccc(SC(F)(F)F)c3)CC2)C1 [Example 3, 4-[(2R)-4-tert-butylpiperazine-2-carbonyl]-N-[3-(trifluoromethylsulfanyl)phenyl]piperazine-1-carboxamide]"
9,2.29,"Cc1cc(NC(=O)N2CCN(C(=O)[C@H]3CN(C(C)(C)C)CCN3)CC2)ccc1Cl [Example 11, 4-[(2R)-4-tert-butylpiperazine-2-carbonyl]-N-(4-chloro-3-methylphenyl)piperazine-1-carboxamide]"
